Assay: Pharmacokinetics in rats after oral administration
Assay type: in vivo
Conditions: male, SD, blood
Protocol: Investigations on the pharmacokinetic characteristics of MEK162 free base single compound (group A), equimolar physical mixture of MEK162 and LEE011 succinate (group B) and co-crystal Form I of MEK162-LEE011 (group C) in the rats were conducted. Male SD rats with standard weight were chosen as experimental objects, three rats in a group and were orally administrated. The dosage in group A was 5 mg·kg^−1 (calculated as free base), the dosages of two components in group B were both 5 mg·kg^−1 (calculated as free base), the dosage in group C was 10 mg·kg^−1 (calculated as co-crystal anhydrate form), and dosage of these two components was around 5 mg·kg^−1 (calculated as free base) as calculated by molecular weight.

Tmax (5 mg·kg^−1, rat, read-out: time to reach maximum concentration (Tmax)): 15 min
AUC(0-inf) (rat, about 5 mg·kg^−1 of each component as free base, read-out: AUC0-inf of MEK162): 11300 ± 895 ng·h/mL
Cmax (rat, about 5 mg·kg^−1 of each component as free base, read-out: maximum concentration of blood drug (Cmax) of MEK162): 3240 ± 576 ng/mL
SMILES: Cn1cnc2c(F)c(Nc3ccc(Br)cc3F)c(C(=O)NOCCO)cc21 [MEK162, 5-[(4-bromo-2-fluorophenyl)amino]-4-fluoro-N-(2-hydroxyethoxy)-1-methyl-1H-benzimidazol-6-carboxamide]

Reference: patent publication US10323035B2, “Co-crystal of a CDK inhibitor and an MEK inhibitor and process of preparation thereof” (CRYSTAL PHARMATECH CO., LTD, priority 2015, dated 2019)
